Assays:
[1] = tested on: Receptor-type tyrosine-protein kinase FLT3 (Homo sapiens), P36888 [D835H]; conditions: Compound concentration 1000.0 nM
[2] = biological target: Mitogen-activated protein kinase 7 (Homo sapiens) (UniProt Q13164); conditions: Compound concentration 1000.0 nM
[3] = biological target: Focal adhesion kinase 1 (Homo sapiens) (UniProt Q05397); conditions: Compound concentration 1000.0 nM
[4] = tested on: Mast/stem cell growth factor receptor Kit (Homo sapiens), P10721 [V559D,V654A]; conditions: Compound concentration 1000.0 nM
[5] = biological target: Muscle, skeletal receptor tyrosine-protein kinase (Homo sapiens) (UniProt O15146); conditions: Compound concentration 1000.0 nM
Chain of Muscle, skeletal receptor tyrosine-protein kinase (Homo sapiens) (O15146 whole entry): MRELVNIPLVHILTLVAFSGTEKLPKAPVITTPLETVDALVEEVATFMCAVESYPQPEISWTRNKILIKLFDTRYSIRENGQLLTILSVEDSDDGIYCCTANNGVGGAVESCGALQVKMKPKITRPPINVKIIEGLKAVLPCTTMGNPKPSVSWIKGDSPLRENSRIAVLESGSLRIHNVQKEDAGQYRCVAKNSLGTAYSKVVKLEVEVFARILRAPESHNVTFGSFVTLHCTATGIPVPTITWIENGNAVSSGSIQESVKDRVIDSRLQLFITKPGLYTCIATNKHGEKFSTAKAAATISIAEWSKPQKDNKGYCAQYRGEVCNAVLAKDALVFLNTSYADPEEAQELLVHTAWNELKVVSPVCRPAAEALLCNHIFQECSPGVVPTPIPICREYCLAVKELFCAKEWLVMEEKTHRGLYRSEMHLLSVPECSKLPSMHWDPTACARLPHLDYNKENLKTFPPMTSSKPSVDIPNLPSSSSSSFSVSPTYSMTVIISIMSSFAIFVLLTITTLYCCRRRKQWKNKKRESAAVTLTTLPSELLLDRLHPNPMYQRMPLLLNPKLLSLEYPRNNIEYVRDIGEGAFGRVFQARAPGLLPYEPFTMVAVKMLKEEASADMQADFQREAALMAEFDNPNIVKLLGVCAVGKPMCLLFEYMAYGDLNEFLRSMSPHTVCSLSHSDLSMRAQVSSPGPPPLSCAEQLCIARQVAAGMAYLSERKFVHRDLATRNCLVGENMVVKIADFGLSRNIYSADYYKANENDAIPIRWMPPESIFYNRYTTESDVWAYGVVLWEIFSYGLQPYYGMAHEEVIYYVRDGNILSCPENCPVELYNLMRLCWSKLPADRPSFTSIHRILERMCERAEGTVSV

[6] = biological target: Homeodomain-interacting protein kinase 3 (Homo sapiens) (UniProt Q9H422); conditions: Compound concentration 1000.0 nM
[7] = biological target: 5-hydroxytryptamine receptor 1B (Homo sapiens) (UniProt P28222); conditions: Compound concentration 10.0 uM
[8] = biological target: Mitogen-activated protein kinase kinase kinase 9 (Homo sapiens) (UniProt P80192); conditions: Compound concentration 1000.0 nM
[9] = tested on: Mast/stem cell growth factor receptor Kit (Homo sapiens), P10721 [V559D]; conditions: Compound concentration 1000.0 nM
[10] = tested on: Leucine-rich repeat serine/threonine-protein kinase 2 (Homo sapiens), Q5S007 [G2019S]; conditions: Compound concentration 1000.0 nM
Chain of Leucine-rich repeat serine/threonine-protein kinase 2 (Homo sapiens), Q5S007 [G2019S] (Q5S007 whole entry G2019S): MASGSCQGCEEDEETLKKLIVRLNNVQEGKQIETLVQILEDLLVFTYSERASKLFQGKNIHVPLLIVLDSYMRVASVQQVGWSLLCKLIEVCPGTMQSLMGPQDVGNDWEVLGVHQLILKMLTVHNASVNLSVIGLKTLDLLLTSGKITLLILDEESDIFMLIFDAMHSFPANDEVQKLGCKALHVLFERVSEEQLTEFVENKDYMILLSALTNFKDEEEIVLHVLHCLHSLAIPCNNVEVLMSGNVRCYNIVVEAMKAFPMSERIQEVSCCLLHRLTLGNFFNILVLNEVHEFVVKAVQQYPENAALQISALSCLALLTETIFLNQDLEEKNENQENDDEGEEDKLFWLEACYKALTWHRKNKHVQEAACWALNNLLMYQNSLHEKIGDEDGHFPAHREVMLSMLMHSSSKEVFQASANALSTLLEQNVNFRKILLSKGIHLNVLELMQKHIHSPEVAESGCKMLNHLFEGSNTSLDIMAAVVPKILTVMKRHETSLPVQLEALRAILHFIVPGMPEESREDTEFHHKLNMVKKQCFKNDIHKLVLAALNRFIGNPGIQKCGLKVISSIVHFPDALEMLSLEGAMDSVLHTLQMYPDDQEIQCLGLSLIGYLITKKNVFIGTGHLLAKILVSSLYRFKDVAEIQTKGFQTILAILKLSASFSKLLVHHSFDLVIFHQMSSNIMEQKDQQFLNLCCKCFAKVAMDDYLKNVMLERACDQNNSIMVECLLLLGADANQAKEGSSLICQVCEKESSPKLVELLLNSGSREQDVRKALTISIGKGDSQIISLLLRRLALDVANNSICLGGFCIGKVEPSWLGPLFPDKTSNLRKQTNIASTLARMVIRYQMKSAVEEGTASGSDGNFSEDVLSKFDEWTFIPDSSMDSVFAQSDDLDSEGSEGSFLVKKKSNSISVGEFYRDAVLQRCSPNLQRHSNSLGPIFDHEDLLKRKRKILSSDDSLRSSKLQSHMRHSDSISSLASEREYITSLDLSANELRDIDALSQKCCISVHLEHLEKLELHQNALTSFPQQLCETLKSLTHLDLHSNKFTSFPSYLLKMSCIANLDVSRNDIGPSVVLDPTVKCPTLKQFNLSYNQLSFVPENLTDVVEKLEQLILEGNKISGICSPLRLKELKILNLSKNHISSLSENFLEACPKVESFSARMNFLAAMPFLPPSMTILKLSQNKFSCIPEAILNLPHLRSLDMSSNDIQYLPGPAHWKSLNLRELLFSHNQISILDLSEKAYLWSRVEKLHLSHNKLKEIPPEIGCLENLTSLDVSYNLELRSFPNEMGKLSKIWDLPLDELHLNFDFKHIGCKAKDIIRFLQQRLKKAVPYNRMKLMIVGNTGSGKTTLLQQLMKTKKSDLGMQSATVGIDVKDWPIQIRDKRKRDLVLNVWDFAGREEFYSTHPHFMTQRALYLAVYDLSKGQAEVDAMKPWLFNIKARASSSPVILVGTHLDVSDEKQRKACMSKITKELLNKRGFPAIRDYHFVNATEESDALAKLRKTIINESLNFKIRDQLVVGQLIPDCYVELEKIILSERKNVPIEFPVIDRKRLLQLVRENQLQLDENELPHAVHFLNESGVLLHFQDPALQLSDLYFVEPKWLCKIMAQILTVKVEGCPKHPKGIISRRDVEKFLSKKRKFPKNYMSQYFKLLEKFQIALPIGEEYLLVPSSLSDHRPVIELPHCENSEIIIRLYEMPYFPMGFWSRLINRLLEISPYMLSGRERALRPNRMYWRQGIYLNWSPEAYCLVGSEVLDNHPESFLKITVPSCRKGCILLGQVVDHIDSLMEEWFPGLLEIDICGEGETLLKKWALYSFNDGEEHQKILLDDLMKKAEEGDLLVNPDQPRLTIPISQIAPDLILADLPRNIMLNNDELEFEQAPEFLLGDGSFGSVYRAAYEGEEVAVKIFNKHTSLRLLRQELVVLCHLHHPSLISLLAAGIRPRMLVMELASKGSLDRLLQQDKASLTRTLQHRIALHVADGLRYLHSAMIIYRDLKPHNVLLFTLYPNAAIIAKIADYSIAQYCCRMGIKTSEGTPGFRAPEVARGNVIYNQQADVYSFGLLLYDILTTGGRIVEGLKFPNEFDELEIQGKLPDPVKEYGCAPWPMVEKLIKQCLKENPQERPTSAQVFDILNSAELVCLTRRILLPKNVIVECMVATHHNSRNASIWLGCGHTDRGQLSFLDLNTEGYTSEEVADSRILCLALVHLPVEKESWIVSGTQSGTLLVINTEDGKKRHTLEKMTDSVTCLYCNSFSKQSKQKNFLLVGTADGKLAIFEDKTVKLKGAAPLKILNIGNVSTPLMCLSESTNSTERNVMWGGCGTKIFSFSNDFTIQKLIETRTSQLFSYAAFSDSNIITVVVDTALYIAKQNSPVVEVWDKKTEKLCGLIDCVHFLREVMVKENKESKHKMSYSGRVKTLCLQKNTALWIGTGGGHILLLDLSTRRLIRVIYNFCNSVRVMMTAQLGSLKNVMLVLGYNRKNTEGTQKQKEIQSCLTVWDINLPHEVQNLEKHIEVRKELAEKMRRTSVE

[11] = biological target: D(3) dopamine receptor (Homo sapiens) (UniProt P35462); conditions: Compound concentration 10.0 uM
[12] = biological target: Tyrosine-protein kinase Lyn (Homo sapiens) (UniProt P07948); conditions: Compound concentration 1000.0 nM
[13] = biological target: Mitogen-activated protein kinase kinase kinase 13 (Homo sapiens) (UniProt O43283); conditions: Compound concentration 1000.0 nM
[14] = biological target: NUAK family SNF1-like kinase 2 (Homo sapiens) (UniProt Q9H093); conditions: Compound concentration 1000.0 nM
[15] = biological target: Serine/threonine-protein kinase Nek4 (Homo sapiens) (UniProt P51957); conditions: Compound concentration 1000.0 nM
[16] = biological target: Tyrosine-protein kinase JAK2 (Homo sapiens) (UniProt O60674); conditions: Compound concentration 1000.0 nM
[17] = tested on: Tyrosine-protein kinase ABL1 (Homo sapiens), P00519 [H396P]; conditions: Compound concentration 1000.0 nM
[18] = biological target: MAP kinase-interacting serine/threonine-protein kinase 1 (Homo sapiens) (UniProt Q9BUB5); conditions: Compound concentration 1000.0 nM
[19] = tested on: Proto-oncogene tyrosine-protein kinase receptor Ret (Homo sapiens), P07949 [M918T]; conditions: Compound concentration 1000.0 nM
[20] = biological target: Citron Rho-interacting kinase (Homo sapiens) (UniProt O14578); conditions: Compound concentration 1000.0 nM
[21] = biological target: RAC-alpha serine/threonine-protein kinase (Homo sapiens) (UniProt P31749); conditions: Compound concentration 1000.0 nM
[22] = biological target: Serine/threonine-protein kinase ULK3 (Homo sapiens) (UniProt Q6PHR2); conditions: Compound concentration 1000.0 nM
Chain of Serine/threonine-protein kinase ULK3 (Homo sapiens) (Q6PHR2 whole entry): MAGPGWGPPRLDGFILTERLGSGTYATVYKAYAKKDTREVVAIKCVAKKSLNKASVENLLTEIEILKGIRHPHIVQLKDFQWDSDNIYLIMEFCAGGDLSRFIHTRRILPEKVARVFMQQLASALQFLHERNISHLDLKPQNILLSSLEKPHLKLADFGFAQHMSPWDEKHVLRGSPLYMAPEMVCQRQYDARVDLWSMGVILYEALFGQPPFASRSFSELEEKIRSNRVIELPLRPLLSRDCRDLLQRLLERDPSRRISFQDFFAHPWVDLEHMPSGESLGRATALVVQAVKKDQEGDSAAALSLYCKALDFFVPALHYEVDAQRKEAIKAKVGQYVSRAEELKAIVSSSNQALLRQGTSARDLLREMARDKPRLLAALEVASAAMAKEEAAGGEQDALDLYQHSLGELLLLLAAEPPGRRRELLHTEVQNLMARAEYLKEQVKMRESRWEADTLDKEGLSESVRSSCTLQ

[23] = biological target: Cyclin-dependent kinase-like 2 (Homo sapiens) (UniProt Q92772); conditions: Compound concentration 1000.0 nM
[24] = biological target: Dual specificity mitogen-activated protein kinase kinase 4 (Homo sapiens) (UniProt P45985); conditions: Compound concentration 1000.0 nM
[25] = biological target: Ephrin type-A receptor 5 (Homo sapiens) (UniProt P54756); conditions: Compound concentration 1000.0 nM
[26] = biological target: Mitogen-activated protein kinase kinase kinase kinase 5 (Homo sapiens) (UniProt Q9Y4K4); conditions: Compound concentration 1000.0 nM
[27] = biological target: Serine/threonine-protein kinase SIK1 (Homo sapiens) (UniProt P57059); conditions: Compound concentration 1000.0 nM
[28] = tested on: Phosphatidylinositol 4,5-bisphosphate 3-kinase catalytic subunit alpha isoform (Homo sapiens), P42336 [E545A]; conditions: Compound concentration 1000.0 nM
[29] = biological target: Serine/threonine-protein kinase Sgk2 (Homo sapiens) (UniProt Q9HBY8); conditions: Compound concentration 1000.0 nM
[30] = biological target: Leukocyte tyrosine kinase receptor (Homo sapiens) (UniProt P29376); conditions: Compound concentration 1000.0 nM
[31] = biological target: Receptor-type tyrosine-protein kinase FLT3 (Homo sapiens) (UniProt P36888); conditions: Compound concentration 1000.0 nM
[32] = tested on: Tyrosine-protein kinase ABL1 (Homo sapiens), P00519 [F317L]; conditions: Compound concentration 1000.0 nM
[33] = biological target: 5-hydroxytryptamine receptor 2A (Homo sapiens, UniProt P28223); conditions: Compound concentration 10.0 uM
Chain of 5-hydroxytryptamine receptor 2A (P28223 whole entry): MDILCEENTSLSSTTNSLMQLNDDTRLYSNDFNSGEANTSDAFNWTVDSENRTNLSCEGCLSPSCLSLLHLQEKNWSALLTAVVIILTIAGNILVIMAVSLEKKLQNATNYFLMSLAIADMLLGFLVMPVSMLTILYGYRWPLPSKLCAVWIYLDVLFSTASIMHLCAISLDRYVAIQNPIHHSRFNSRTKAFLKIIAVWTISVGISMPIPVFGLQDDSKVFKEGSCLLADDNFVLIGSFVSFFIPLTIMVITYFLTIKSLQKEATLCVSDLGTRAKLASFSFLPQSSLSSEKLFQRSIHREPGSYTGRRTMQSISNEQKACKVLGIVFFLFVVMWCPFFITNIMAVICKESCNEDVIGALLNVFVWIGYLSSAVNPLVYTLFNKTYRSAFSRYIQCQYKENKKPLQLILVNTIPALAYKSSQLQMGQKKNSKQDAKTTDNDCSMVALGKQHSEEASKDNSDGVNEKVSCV

[34] = biological target: Serine/threonine-protein kinase DCLK1 (Homo sapiens) (UniProt O15075); conditions: Compound concentration 1000.0 nM
[35] = tested on: Receptor-type tyrosine-protein kinase FLT3 (Homo sapiens), P36888 [D835V]; conditions: Compound concentration 1000.0 nM
[36] = biological target: Dual specificity mitogen-activated protein kinase kinase 5 (Homo sapiens) (UniProt Q13163); conditions: Compound concentration 1000.0 nM
[37] = biological target: Homeodomain-interacting protein kinase 1 (Homo sapiens) (UniProt Q86Z02); conditions: Compound concentration 1000.0 nM
[38] = biological target: Serine/threonine-protein kinase 36 (Homo sapiens) (UniProt Q9NRP7); conditions: Compound concentration 1000.0 nM
[39] = biological target: Ephrin type-A receptor 6 (Homo sapiens) (UniProt Q9UF33); conditions: Compound concentration 1000.0 nM
[40] = biological target: Casein kinase I isoform delta (Homo sapiens) (UniProt P48730); conditions: Compound concentration 1000.0 nM
[41] = biological target: Serine/threonine-protein kinase 32B (Homo sapiens) (UniProt Q9NY57); conditions: Compound concentration 1000.0 nM
Chain of Serine/threonine-protein kinase 32B (Homo sapiens) (Q9NY57 whole entry): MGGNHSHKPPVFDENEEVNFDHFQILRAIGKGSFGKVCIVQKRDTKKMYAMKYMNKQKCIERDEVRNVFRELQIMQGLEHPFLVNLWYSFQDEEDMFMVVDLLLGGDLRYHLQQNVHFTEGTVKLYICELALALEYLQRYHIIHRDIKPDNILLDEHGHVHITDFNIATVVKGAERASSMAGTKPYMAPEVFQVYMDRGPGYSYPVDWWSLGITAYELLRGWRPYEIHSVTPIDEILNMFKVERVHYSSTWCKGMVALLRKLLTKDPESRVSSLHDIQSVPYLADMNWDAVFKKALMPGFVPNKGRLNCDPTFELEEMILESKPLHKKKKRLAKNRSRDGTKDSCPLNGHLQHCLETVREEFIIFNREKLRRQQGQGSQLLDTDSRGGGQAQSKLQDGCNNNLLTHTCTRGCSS

[42] = biological target: Mitogen-activated protein kinase 12 (Homo sapiens) (UniProt P53778); conditions: Compound concentration 1000.0 nM
[43] = biological target: Tyrosine-protein kinase SYK (Homo sapiens) (UniProt P43405); conditions: Compound concentration 1000.0 nM
[44] = biological target: Receptor-interacting serine/threonine-protein kinase 4 (Homo sapiens) (UniProt P57078); conditions: Compound concentration 1000.0 nM
[45] = biological target: Fibroblast growth factor receptor 3 (Homo sapiens) (UniProt P22607); conditions: Compound concentration 1000.0 nM

O=C(Nc1cccnn1)N1CC(C/C=C/c2cncc(Oc3ccc(C(F)(F)F)cn3)n2)C1
active: residual activity [13] 0%
inactive: residual activity [1] 100% | residual activity [2] 100% | residual activity [3] 100% | residual activity [4] 100% | residual activity [5] 97% | residual activity [6] 74% | inhibition [7] 4.8% | residual activity [8] 100% | residual activity [9] 64% | residual activity [10] 100% | inhibition [11] -9.59% | residual activity [12] 97% | residual activity [14] 73% | residual activity [15] 95% | residual activity [16] 88% | residual activity [17] 100% | residual activity [18] 67% | residual activity [19] 96% | residual activity [20] 100% | residual activity [21] 100% | residual activity [22] 82% | residual activity [23] 100% | residual activity [24] 74% | residual activity [25] 85% | residual activity [26] 94% | residual activity [27] 100% | residual activity [28] 75% | residual activity [29] 74% | residual activity [30] 100% | residual activity [31] 100% | residual activity [32] 67% | inhibition [33] -3.55% | residual activity [34] 84% | residual activity [35] 77% | residual activity [36] 88% | residual activity [37] 88% | residual activity [38] 100% | residual activity [39] 100% | residual activity [40] 100% | residual activity [41] 100% | residual activity [42] 100% | residual activity [43] 100% | residual activity [44] 74% | residual activity [45] 97%

O=C(Nc1cccnn1)N1CCC(=Cc2cccc(Oc3ccc(C(F)(F)F)cn3)c2)CC1
active: inhibition [33] 82.9%
inactive: residual activity [1] 88% | residual activity [2] 100% | residual activity [3] 100% | residual activity [4] 100% | residual activity [5] 100% | residual activity [6] 100% | inhibition [7] 24.4% | residual activity [8] 100% | residual activity [9] 75% | residual activity [10] 100% | inhibition [11] 4.08% | residual activity [12] 100% | residual activity [13] 100% | residual activity [14] 88% | residual activity [15] 98% | residual activity [16] 100% | residual activity [17] 86% | residual activity [18] 100% | residual activity [19] 80% | residual activity [20] 79% | residual activity [21] 93% | residual activity [22] 100% | residual activity [23] 92% | residual activity [24] 100% | residual activity [25] 98% | residual activity [26] 100% | residual activity [27] 100% | residual activity [28] 100% | residual activity [29] 100% | residual activity [30] 74% | residual activity [31] 100% | residual activity [32] 94% | residual activity [34] 100% | residual activity [35] 100% | residual activity [36] 100% | residual activity [37] 100% | residual activity [38] 100% | residual activity [39] 78% | residual activity [40] 100% | residual activity [41] 82% | residual activity [42] 100% | residual activity [43] 100% | residual activity [44] 100% | residual activity [45] 83%
